# Results taken from US9567322B2, “Substituted tetrahydropyrans and method of use” (AbbVie S.á.r.l., priority 2014, dated 2017).
# Biological target: T1, F508delCFTR (Homo sapiens, UniProt P13569, DEL508-508)
# T1 construct: expressed in transfected cells; host or cells: CFBE41o- (CFBE41o-F508delCFTR-HRP), doxycycline-inducible
# Assay: Cell Surface Expression-Horse Radish Peroxidase (CSE-HRP) assay
# Assay type: cell-based
# Details: CFBE41o-F508delCFTR-HRP cells; for EC50: cell surface expression, luminescence readout, 18-24 hours at 33° C., highest concentration tested 20 μM, 8-point curve; for Maximum % activity: maximum at any tested concentration, normalized to on-plate positive control (3 μM) and DMSO
# Text: Cell Surface Expression-Horse Radish Peroxidase (CSE-HRP) Assay:
# A cellular assay for measuring the F508delCFTR cell surface expression after correction with test compounds was developed in human lung derived epithelial cell line (CFBE41o-) (Veit G et al, (2012) Mol Biol Cell. 23(21): 4188-4202). This was achieved by expressing the F508delCFTR mutation along with a horseradish peroxidase (HRP) in the fourth exofacial loop and then measuring the HRP activity using luminescence readout from these cells, CFBE41o-F508delCFTR-HRP, that were incubated overnight with the test corrector compounds. Briefly, for this primary assay, the CFBE41o-F508delCFTR-HRP cells were plated in 384-well plates (Greiner Bio-one; Cat 781080) at 4,000 cells/well along with 0.5 μg/mL doxycycline to induce the F508delCFTR-HRP expression and further incubated at 37° C., 5% CO2 for 72 hours. The test compounds were then added at the required concentrations and further incubated for 18-24 hours at 33° C. The highest concentration tested was 20 μM with an 8-point concentration response curve using a 3-fold dilution. Three replicate plates were run to determine one EC50. All plates contained negative controls (dimethyl sulfoxide, DMSO) and positive controls (3 μM of 3-[(2R,4R)-4-({[1-(2,2-difluoro-1,3-benzodioxol-5-yl)cyclopropyl]carbonyl}amino)-7-methoxy-3,4-dihydro-2H-chromen-2-yl]benzoic acid) as well as on-plate concentration response of the positive control. Post incubation, the plates were washed 5× times with Dulbecco's phosphate buffered saline (DPBS), followed by the addition of the HRP substrate, luminol (50 μL), and measuring the HRP activity using luminescence readout on EnVision® Multilabel Plate Reader (Perkin Elmer; product number 2104-0010). The raw counts from the experiment are analyzed using Accelrys® Assay Explorer v3.3.
# Z′ greater than 0.5 was used as passing quality control criteria for the plates.
# The Z′ is defined as: 1−[3*SDPositive Control+3*SDNegative Control/Absolute(MeanPositive Control−MeanNegative Control)],
# wherein “SD” is standard deviation.
# The % activity measured at each of the 8 test concentrations of the test compound was normalized to the on-plate positive control using the following formula: % activity=[(test compound response−DMSO response)/(positive control response−DMSO response)]*100
# The maximum % activity achieved for the test compound at any tested concentration is presented in Table 1 along with the EC50 calculated using the following general sigmoidal curve with variable Hill slope equation (described as Model 42 in the Accelrys® Assay Explorer v3.3 software): y=(a−d)/(1+(x/c)^b)+d General sigmoidal curve with concentration, response, top, bottom, EC50 and Hill slope.
# This model describes a sigmoidal curve with an adjustable baseline, a. The equation can be used to fit curves where response is either increasing or decreasing with respect to the independent variable, “x”.
# “x” is a concentration of drug under test.
# “a” is the maximum response, and “d” is the minimum response
# “c” is the inflection point (EC50) for the curve. That is, “y” is halfway between the lower and upper asymptotes when x=c.
# “b” is the slope-factor or Hill coefficient. The sign of b is positive when the response increases with increasing dose and is negative when the response decreases with increasing dose (inhibition).
# T1 sequence (P13569 with tags, fused parts or gaps DEL508-508): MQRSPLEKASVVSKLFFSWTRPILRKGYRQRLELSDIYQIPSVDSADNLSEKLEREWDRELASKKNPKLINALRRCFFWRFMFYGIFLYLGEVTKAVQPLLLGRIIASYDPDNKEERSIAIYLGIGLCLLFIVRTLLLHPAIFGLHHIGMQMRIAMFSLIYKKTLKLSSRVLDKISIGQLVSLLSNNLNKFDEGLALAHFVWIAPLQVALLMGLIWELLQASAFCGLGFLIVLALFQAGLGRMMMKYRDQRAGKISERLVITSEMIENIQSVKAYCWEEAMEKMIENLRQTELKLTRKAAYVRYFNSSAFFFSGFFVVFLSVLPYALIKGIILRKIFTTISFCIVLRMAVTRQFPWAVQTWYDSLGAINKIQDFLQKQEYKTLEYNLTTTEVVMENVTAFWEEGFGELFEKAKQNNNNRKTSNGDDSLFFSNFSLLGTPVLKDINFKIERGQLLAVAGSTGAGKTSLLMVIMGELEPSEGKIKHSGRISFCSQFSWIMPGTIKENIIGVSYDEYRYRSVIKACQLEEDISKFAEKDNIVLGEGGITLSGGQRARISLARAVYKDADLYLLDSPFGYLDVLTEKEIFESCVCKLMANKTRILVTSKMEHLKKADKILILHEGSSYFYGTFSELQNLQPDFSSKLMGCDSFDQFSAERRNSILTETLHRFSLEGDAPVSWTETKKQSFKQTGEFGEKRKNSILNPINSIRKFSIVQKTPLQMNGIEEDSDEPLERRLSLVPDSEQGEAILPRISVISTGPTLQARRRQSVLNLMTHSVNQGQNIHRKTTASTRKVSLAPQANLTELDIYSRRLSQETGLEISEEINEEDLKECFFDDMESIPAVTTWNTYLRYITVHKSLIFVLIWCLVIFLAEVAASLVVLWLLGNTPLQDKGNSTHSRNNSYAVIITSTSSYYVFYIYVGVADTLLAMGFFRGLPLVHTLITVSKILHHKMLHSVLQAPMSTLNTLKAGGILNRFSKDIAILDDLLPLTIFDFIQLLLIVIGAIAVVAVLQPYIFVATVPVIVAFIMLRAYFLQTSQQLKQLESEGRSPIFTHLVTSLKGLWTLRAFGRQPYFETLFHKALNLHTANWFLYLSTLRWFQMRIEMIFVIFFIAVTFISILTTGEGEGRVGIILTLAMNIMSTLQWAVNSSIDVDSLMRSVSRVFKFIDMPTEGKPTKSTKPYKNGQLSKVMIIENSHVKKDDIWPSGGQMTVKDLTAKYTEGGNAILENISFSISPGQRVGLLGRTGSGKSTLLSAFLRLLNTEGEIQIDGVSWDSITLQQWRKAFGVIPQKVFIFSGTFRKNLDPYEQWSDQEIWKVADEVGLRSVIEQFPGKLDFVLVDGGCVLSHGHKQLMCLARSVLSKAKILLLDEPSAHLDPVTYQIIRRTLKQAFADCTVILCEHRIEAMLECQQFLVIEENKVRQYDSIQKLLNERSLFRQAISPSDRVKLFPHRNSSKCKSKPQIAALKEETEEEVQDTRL
SMILES,EC50,Maximum % activity (3 µM),Maximum % activity
"Cc1cc(C(=O)O)ccc1[C@H]1C[C@H](NC(=O)C2(c3ccc4c(c3)OC(F)(F)O4)CC2)C[C@@H](c2ccccc2)O1 (racemic) [Example 64, rac-4-[(2R,4R,6S)-4-({[1-(2,2-difluoro-1,3-benzodioxol-5-yl)cyclopropyl]carbonyl}amino)-6-phenyltetrahydro-2H-pyran-2-yl]-3-methylbenzoic acid]",2.4 µM,53%,–
"CCOC(=O)c1cccc([C@H]2C[C@@H](NC(=O)C3(c4ccc5c(c4)OC(F)(F)O5)CC3)C[C@@H](c3cccc(OC)c3)O2)c1 (racemic) [Example 68, ethyl rac-3-[(2R,4R,6S)-4-({[1-(2,2-difluoro-1,3-benzodioxol-5-yl)cyclopropyl]carbonyl}amino)-6-(3-methoxyphenyl)tetrahydro-2H-pyran-2-yl]benzoate]",1.04 µM,–,108%
"Cc1ccc(C(=O)O)cc1[C@H]1C[C@@H](NC(=O)C2(c3ccc4c(c3)OC(F)(F)O4)CC2)C[C@@H](c2ccccc2)O1 (racemic) [Example 70, rac-3-[(2R,4S,6S)-4-({[1-(2,2-difluoro-1,3-benzodioxol-5-yl)cyclopropyl]carbonyl}amino)-6-phenyltetrahydro-2H-pyran-2-yl]-4-methylbenzoic acid]",0.91 µM,–,92%
"COC(=O)c1ccc(C)c([C@H]2C[C@@H](NC(=O)C3(c4ccc5c(c4)OC(F)(F)O5)CC3)C[C@@H](c3ccccc3)O2)c1 (racemic) [Example 71, methyl rac-3-[(2R,4S,6S)-4-({[1-(2,2-difluoro-1,3-benzodioxol-5-yl)cyclopropyl]carbonyl}amino)-6-phenyltetrahydro-2H-pyran-2-yl]-4-methylbenzoate]",1.31 µM,–,92%
"CCOC(=O)c1cc(C)cc([C@H]2C[C@@H](NC(=O)C3(c4ccc5c(c4)OC(F)(F)O5)CC3)C[C@@H](c3ccccc3)O2)c1 (racemic) [Example 72, ethyl rac-3-[(2R,4S,6S)-4-({[1-(2,2-difluoro-1,3-benzodioxol-5-yl)cyclopropyl]carbonyl}amino)-6-phenyltetrahydro-2H-pyran-2-yl]-5-methylbenzoate]",1.16 µM,–,106%
"COC(=O)c1ccc([C@@H]2C[C@H](NC(=O)C3(c4ccc5c(c4)OC(F)(F)O5)CC3)CCO2)c(C)c1 (single isomer, unassigned) [Example 40]",2.1 µM,–,60%
"COC(=O)c1ccc([C@H]2C[C@@H](NC(=O)C3(c4ccc5c(c4)OC(F)(F)O5)CC3)CCO2)c(C)c1 (single isomer, unassigned) [Example 41]",0.41 µM,–,104%
"Cc1cc(C(=O)O)cc([C@H]2C[C@@H](NC(=O)C3(c4ccc5c(c4)OC(F)(F)O5)CC3)C[C@@H](c3ccccc3)O2)c1 (single isomer, unassigned) [Example 75]",0.22 µM,–,105%
"Cc1cc(C(=O)O)cc([C@@H]2C[C@H](NC(=O)C3(c4ccc5c(c4)OC(F)(F)O5)CC3)C[C@H](c3ccccc3)O2)c1 (single isomer, unassigned) [Example 76]",1.59 µM,–,38%
"Cc1cc(C(=O)O)ccc1[C@H]1C[C@@H](NC(=O)C2(c3ccc4c(c3)OC(F)(F)O4)CC2)CCO1 (stereo in doubt) [Example 37, rac-4-[(2R,4S)-4-({[1-(2,2-difluoro-1,3-benzodioxol-5-yl)cyclopropyl]carbonyl}amino)tetrahydro-2H-pyran-2-yl]-3-methylbenzoic acid]",0.47 µM,–,115%
"Cc1cc(C(=O)O)ccc1[C@@H]1C[C@H](NC(=O)C2(c3ccc4c(c3)OC(F)(F)O4)CC2)CCO1 (stereo in doubt) [Example 42, rel-4-[(2S,4R)-4-({[1-(2,2-difluoro-1,3-benzodioxol-5-yl)cyclopropyl]carbonyl}amino)tetrahydro-2H-pyran-2-yl]-3-methylbenzoic acid]",6.87 µM,–,36%
"Cc1cc(C(=O)O)ccc1[C@H]1C[C@@H](NC(=O)C2(c3ccc4c(c3)OC(F)(F)O4)CC2)CCO1 (stereo in doubt) [Example 43, rel-4-[(2R,4S)-4-({[1-(2,2-difluoro-1,3-benzodioxol-5-yl)cyclopropyl]carbonyl}amino)tetrahydro-2H-pyran-2-yl]-3-methylbenzoic acid]",0.32 µM,–,119%
"O=C(N[C@@H]1CCO[C@H](c2ccc3c(c2)OCO3)C1)C1(c2ccc3c(c2)OC(F)(F)O3)CC1 [Example 15, N-[(2S,4R)-2-(1,3-benzodioxol-5-yl)tetrahydro-2H-pyran-4-yl]-1-(2,2-difluoro-1,3-benzodioxol-5-yl)cyclopropanecarboxamide]",6.7 µM,–,75%
"COC(=O)c1cccc([C@@H]2C[C@H](NC(=O)C3(c4ccc5c(c4)OC(F)(F)O5)CC3)CCO2)c1 [Example 16, methyl 3-[(2S,4R)-4-({[1-(2,2-difluoro-1,3-benzodioxol-5-yl)cyclopropyl]carbonyl}amino)tetrahydro-2H-pyran-2-yl]benzoate]",2.62 µM,–,44%
"COC(=O)c1cccc([C@H]2C[C@@H](NC(=O)C3(c4ccc5c(c4)OC(F)(F)O5)CC3)CCO2)c1 [Example 17, methyl 3-[(2R,4S)-4-({[1-(2,2-difluoro-1,3-benzodioxol-5-yl)cyclopropyl]carbonyl}amino)tetrahydro-2H-pyran-2-yl]benzoate]",1.11 µM,–,81%
"O=C(O)c1cccc([C@@H]2C[C@H](NC(=O)C3(c4ccc5c(c4)OC(F)(F)O5)CC3)CCO2)c1 [Example 18, 3-[(2S,4R)-4-({[1-(2,2-difluoro-1,3-benzodioxol-5-yl)cyclopropyl]carbonyl}amino)tetrahydro-2H-pyran-2-yl]benzoic acid]",≥ 20 µM,–,3%

# Second part, the compound after the results:
EC50,Maximum % activity (3 µM),Maximum % activity,SMILES
0.42 µM,–,85%,"COc1cccc([C@@H]2C[C@H](NC(=O)C3(c4ccc5c(c4)OC(F)(F)O5)CC3)C[C@H](c3cccc(C(=O)O)c3)O2)c1 (racemic) [Example 69, rac-3-[(2R,4R,6S)-4-({[1-(2,2-difluoro-1,3-benzodioxol-5-yl)cyclopropyl]carbonyl}amino)-6-(3-methoxyphenyl)tetrahydro-2H-pyran-2-yl]benzoic acid]"
1.71 µM,–,71%,"O=C(O)c1ccc([C@@H]2C[C@H](NC(=O)C3(c4ccc5c(c4)OC(F)(F)O5)CC3)C[C@H](c3ccccc3)O2)cc1 (single isomer, unassigned) [Example 54]"
7.37 µM,–,63%,"C[C@H]1C[C@@H](NC(=O)C2(c3ccc4c(c3)OC(F)(F)O4)CC2)C[C@@H](c2ccc(C(=O)O)cc2)O1 (single isomer, unassigned) [Example 58]"
0.98 µM,–,90%,"C[C@@H]1C[C@H](NC(=O)C2(c3ccc4c(c3)OC(F)(F)O4)CC2)C[C@H](c2ccc(C(=O)O)cc2)O1 (single isomer, unassigned) [Example 59]"
0.32 µM,–,79%,"COc1ccc([C@@H]2C[C@H](NC(=O)C3(c4ccc5c(c4)OC(F)(F)O5)CC3)C[C@H](c3ccc(C(=O)O)cc3)O2)cc1 (single isomer, unassigned) [Example 66]"
2.41 µM,–,54%,"COc1ccc([C@H]2C[C@@H](NC(=O)C3(c4ccc5c(c4)OC(F)(F)O5)CC3)C[C@@H](c3ccc(C(=O)O)cc3)O2)cc1 (single isomer, unassigned) [Example 67]"
0.24 µM,–,89%,"COc1cccc([C@@H]2C[C@H](NC(=O)C3(c4ccc5c(c4)OC(F)(F)O5)CC3)C[C@H](c3cccc(C(=O)O)c3)O2)c1 (single isomer, unassigned) [Example 74]"
